This is an account of results in patent publication US11957699B2, “Composition comprising punicalagin for inhibiting PAR2 activity” (INDUSTRY-ACADEMIC COOPERATION FOUNDATION, YONSEI UNIVERSITY, priority 2018, dated 2024).

By IC50 is commonly meant the concentration at which inhibition is half-maximal.

Series [1] deals with T1, PAR2 (Homo sapiens, UniProt P55085).
T1 sequence (P55085 26-397): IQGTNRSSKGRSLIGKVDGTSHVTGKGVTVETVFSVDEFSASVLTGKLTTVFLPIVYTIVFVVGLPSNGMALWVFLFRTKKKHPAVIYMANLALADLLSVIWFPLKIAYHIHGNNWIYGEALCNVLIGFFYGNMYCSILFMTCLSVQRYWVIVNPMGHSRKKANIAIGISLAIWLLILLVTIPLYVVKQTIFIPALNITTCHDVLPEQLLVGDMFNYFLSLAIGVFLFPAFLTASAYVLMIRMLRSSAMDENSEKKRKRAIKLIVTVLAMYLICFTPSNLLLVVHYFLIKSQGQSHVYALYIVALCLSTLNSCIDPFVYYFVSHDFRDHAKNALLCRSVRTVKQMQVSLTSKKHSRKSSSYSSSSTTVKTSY
In words: Cytokine secretion by PAR2-AP in primary cultured human conjunctival epithelial cells (ELISA). It is filed as cell-based. More on the design: endogenous in cells. As to conditions: 10 μM, 100 μM PAR2-AP, 24 hours. The method, then:
In order to determine whether punicalagin inhibits cytokine secretion by PAR2 receptor activity, human conjunctival epithelial cells, which were primary cultured and differentiated in a transwell, were treated with 100 μM PAR2-AP or 10 μM punicalagin for 24 hours, and then, by collecting the culture medium from the apical membrane, cytokine concentrations were measured by the enzyme-linked immunosorbent assay.
Background: An ELISA detects its analyte on a solid surface through an enzyme-linked reagent.

The conditions of series [2]: rats, 6% punicalagin diet for 37 days; cited from earlier work.
Series [3] concerns the target T1, PAR2. Kind of series: Intracellular calcium increase by trypsin (PAR2 receptor activation) in HaCaT keratinocytes. More on the design: endogenous in cells; host or cells: HaCaT keratinocytes. In kind it is cell-based. The procedure: After keratinocytes (HaCaT) were cultured for 48 hours in a 96-well micro plate with the DMEM culture medium, the culture medium was removed, and then, 100 μL of the Flou4-NW dye mixture was added. While blocking the light, it was stabilized for 1 hour such that a calcium ion dye (Ca^2+ dye) was loaded into the cells. 100 μM punicalagin was treated, and the concentration change of intracellular calcium ions was measured for 5 minutes (panel A of FIG. 17). Next, punicalin (0, 1, 3, 10, 20, 30, 100, and 300 μM) by concentration (panel B of FIG. 17) or punicalagin (0, 1, 3, 5, 10, 20, 30, and 100 μM) by concentration (panel C of FIG. 17) was treated for 10 minutes, and then, each well was treated with 0.1 μM trypsin to measure the concentration change of intracellular calcium ions according to PAR2 receptor activation.
For orientation: A change in cytosolic calcium serves as a functional read-out for many receptors and channels.

A further series relates to NIH3T3 cells. Kind of series: Cell viability of NIH3T3 cells. In kind it is cell-based. As to conditions: up to 30 μM. The method, then:
In order to determine the toxicity of punicalagin, the effect of NIH3T3 cells on cell viability and the weight change of 8-week-old wild-type mice were evaluated, and the heart, liver, and lung were extracted from 30-week-old lupus mice and were histologically evaluated by performing hematoxylin-eosin staining.

A further series has as its system carbonic anhydrase. The conditions noted are these: cited from earlier work.
Series [4] concerns the target T1, PAR2. In words: Cellular signal changes and inflammatory cytokine secretion by PAR2 receptor activity in human glomerular podocytes. It is filed as cell-based. Further details: endogenous in cells. The procedure: The effects of punicalagin on cellular signal changes and inflammatory cytokine secretion by PAR2 receptor activity in human glomerular podocytes were evaluated.

The target of series [5] is T1, PAR2. Kind of series: Specificity: intracellular calcium increase by trypsin, PAR1-AP, thrombin and ATP in HT-29 cells. It is filed as cell-based. Further details: endogenous in cells; host or cells: HT-29 colon cancer cells. The method, then: After colon cancer cells (HT-29) were cultured for 48 hours in a 96-well micro plate with the RPMI1640 culture medium, the culture medium was removed, and then, 100 μL of the Flou4-NW dye mixture was added. While blocking the light, it was stabilized for 1 hour such that a calcium ion dye (Ca^2+ dye) was loaded into the cells. Next, punicalagin was pretreated by concentration (0, 0.3, 1, 3, 10, 30, and 100 μM) for 10 minutes, and by treating 100 nM trypsin, it was measured for about 70 seconds at 1-second intervals to determine whether the concentration changes of intracellular calcium ions by PAR2 activation were an inhibitory effect by punicalagin (panel A of FIG. 2). In the same manner as the above, after punicalagin was pretreated by concentration (0, 1, 3, 10, 30, 100, and 300 μM), by treating 100 μM PAR1-AP (panel B of FIG. 2), 10 unit/mL thrombin (panel C of FIG. 2), and 100 μM ATP (panel D of FIG. 2), the concentration changes in intracellular calcium ions were measured for 70 seconds at 1-second intervals in each case.
In addition, it was compared how much it inhibited an increase in the concentration of intracellular calcium ions by trypsin, PAR1-AP, PAR2-AP, thrombin, and ATP depending on the concentration of punicalagin.

Series [6] deals with conjunctival epithelial cells. Kind of series: IL-6 secretion by house dust mite (HDM) in conjunctival epithelial cells (enzyme immunoassay). In kind it is cell-based, human. As to conditions: 10 μg/mL HDM 24 hours. The method, then:
Next, conjunctival epithelial cells showing a high response to the concentration increase of intracellular calcium ions by HDM and PAR2-AP were treated with 1, 3, and 10 μM punicalagin, and after treating with 10 μg/mL HDM for 24 hours, secreted IL-6 cytokines were measured by enzyme immunoassay. As a result, it was confirmed that 1, 3, and 10 μM punicalagin inhibited about 50, 91, and 93% of IL-6 cytokines that were increased by HDM, respectively (panel C of FIG. 5).

SMILES strings stand for the structures.

Turning to `O=CC1OC(=O)c2cc(O)c(O)c(O)c2-c2c(cc(O)c(O)c2O)C(=O)OC1C1OC(=O)c2cc(O)c(O)c(O)c2-c2c(O)c(O)c3oc(=O)c4c(c(O)c(O)c5oc(=O)c2c3c54)-c2c(cc(O)c(O)c2O)C(=O)OCC1O` (stereo not shown) [punicalagin, 1,2,3,11,12,13-hexahydroxy-5,10-dioxo-8-[3,4,5,11,17,18,19,22,23,34,35-undecahydroxy-8,14,26,31-tetraoxo-9,13,25,32-tetraoxaheptacyclo[25.8.0.0^2,7.0^15,20.0^21,30.0^24,29.0^28,33]pentatnaconta-1(35),2,4,6,15,17,19,21,23,27,29,33-dodecaen-10-yl]-5,7,8,10-tetrahydrodibenzo[f,h][1,4]dioxecin-7-carbaldehyde], at PAR2 [1], the “inhibition of GMCSF induced by PAR2-AP” value is 66.8%, the “inhibition of interleukin-6 (IL-6) induced by PAR2-AP” value was determined as 59.5% and the “inhibition of interleukin-8 (IL-8) induced by PAR2-AP” value amounted to 61.6%. In addition, the toxicity entry in series [2] was “no toxicity”. Moreover, the “effect on the concentration of intracellular calcium ions in keratinocytes (without trypsin)” value on PAR2 [3] (100 μM, 5 minutes) was “no effect”. Also, the “inhibition of PAR2 receptor activity by trypsin” value at PAR2 [3] (HaCaT, 0.1 μM trypsin, 10 minutes pretreatment) is recorded as “inhibited PAR2 receptor activity by trypsin in a concentration-dependent manner”. For the same compound, the half-maximal inhibitory concentration (IC50) on PAR2 [3] (HaCaT, 0.1 μM trypsin, read-out: IC50, inhibition of the PAR2 receptor (calcium increase by trypsin)) was determined as 5.24 µM. Further, on PAR2 [3] (HaCaT, trypsin), the “strength of PAR2 receptor inhibition compared to punicalin” value was at least 3.7 times. Besides, in the series with NIH3T3 cells, the “effect on viability of NIH3T3 cells” value was “no effect”. The “activity against carbonic anhydrase” value in the series with carbonic anhydrase is given as “inhibitory activity”. At PAR2 [4], the “expression amounts of VCAM-1 and ICAM-1 increased by PAR2 receptor activity” value was “significantly reduced”. Further, on PAR2 [4] (concentration-dependent), the “expressions of inflammatory cytokines (IL-6, IFN-γ, TNF-α, and IL-8)” value is reported as “significantly reduced”; the “phosphorylation of ERK 1/2 according to PAR2 receptor activity by PAR2-AP” value is “inhibited”; the “phosphorylation of NF-κB P65 according to PAR2 receptor activity” value is “inhibited”. At PAR2 [5] (100 nM trypsin, 100 μM PAR1-AP, 10 unit/mL thrombin or 100 μM ATP, increasing punicalagin concentration), the “inhibition of increase in concentration of intracellular calcium ions” value was “effect of inhibiting an increase in the concentration of calcium ions was also improved”. For the same compound, on PAR2 [5] (calcium increase), the “selectivity for inhibition of PAR2 activity compared to ATP, thrombin, and PAR1-AP” value is recorded as at least 10 times. Besides, in series [6] (1 μM), the “inhibition of IL-6 cytokines increased by HDM” value is on record as “about 50%”. In addition, the “inhibition of IL-6 cytokines increased by HDM” value in series [6] (3 μM) is about 91%. Moreover, in series [6] (10 μM), the “inhibition of IL-6 cytokines increased by HDM” value is about 93%.
